In patent publication US11214803B2, “Modulators of YAP1 expression” (Ionis Pharmaceuticals, Inc., priority 2019, dated 2022):
Strand notation (5' to 3'): a small letter for the sugar, then the base; units joined by * are phosphorothioate-linked, units joined directly phosphodiester-linked; [ ] holds rarer units or linkages, { } end groups; capitals alone tell only the bases. k = constrained ethyl (cEt); [5mC] = 5-methylcytosine; d = 2'-deoxy (DNA)

Columns and labels:
Yap1 mRNA [1] = assay: Antisense inhibition of human Yap1 in A-431 cells by cEt gapmers, single dose (Example 3, RTS36584); assay type: cell-based
Outline: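 Single-dose free-uptake screen of 3-10-3 cEt gapmers in A-431 cells at 2,000 nM over about 48 h. Values are % untreated control Yap1 mRNA.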

Yap1 mRNA [2] = assay: Dose-dependent inhibition of human Yap1 in A-431 cells (Example 8, 10,000 cells per well, RTS4814); assay type: cell-based; conditions: for Yap1 mRNA, % UTC: A-431 cells, 10,000 cells per well; for IC50 / % UTC (Yap1 mRNA): A-431 cells
Outline: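 A-431 cells (10,000/well) dosed with modified oligonucleotides by free uptake; Yap1 mRNA measured ~48 h later with primer-probe set RTS4814, normalized to total RNA (RIBOGREEN). Values are % of untreated control; IC50 from linear regression on log/linear plot.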

[3] = Table 29, Yap1 mRNA as percent of untreated control, 3-10-3 cEt gapmers targeting SEQ ID NO.: 1, and 2
[4] = 31.3 nM, free uptake, approximately 48 hours, RTS4814
[5] = 125.0 nM, free uptake, approximately 48 hours, RTS4814
[6] = 500.0 nM, free uptake, approximately 48 hours, RTS4814
[7] = 2000.00 nM, free uptake, approximately 48 hours, RTS4814
[8] = free uptake, approximately 48 hours, RTS4814, linear regression on log/linear plot
[9] = Table 27, Yap1 mRNA by 3-10-3 cEt gapmers targeting SEQ ID NO.: 1, and 2, percent of untreated control
[10] = Table 35, Yap1 mRNA as percent of untreated control, 3-10-3 cEt gapmers targeting SEQ ID NO: 1 and 2, single dose
[11] = Table 28, Yap1 mRNA as percent of untreated control, 3-10-3 cEt gapmers targeting SEQ ID NO.: 1, and 2
[12] = Table 26, Yap1 mRNA by 3-10-3 cEt gapmers targeting SEQ ID NO.: 1, and 2, percent of untreated control
[13] = Table 34, Yap1 mRNA as percent of untreated control, 3-10-3 cEt gapmers targeting SEQ ID NO: 1 and 2, single dose

Row | Substance | YAP1 (% UTC) (Yap1 mRNA [1]; [3]) | Yap1 mRNA, % UTC (Yap1 mRNA [2]; [4]) | Yap1 mRNA, % UTC (Yap1 mRNA [2]; [5]) | Yap1 mRNA, % UTC (Yap1 mRNA [2]; [6]) | Yap1 mRNA, % UTC (Yap1 mRNA [2]; [7]) | IC50 (Yap1 mRNA [2]; [8]) | YAP1 (% UTC) (Yap1 mRNA [1]; [9]) | YAP1 (% UTC) (Yap1 mRNA [1]; [10]) | % UTC (Yap1 mRNA) (Yap1 mRNA [2]; 31.3 nM) | % UTC (Yap1 mRNA) (Yap1 mRNA [2]; 125.0 nM) | % UTC (Yap1 mRNA) (Yap1 mRNA [2]; 500.0 nM) | % UTC (Yap1 mRNA) (Yap1 mRNA [2]; 2000.00 nM) | IC50 (Yap1 mRNA [2]; Yap1 mRNA) | YAP1 (% UTC) (Yap1 mRNA [1]; [11]) | YAP1 (% UTC) (Yap1 mRNA [1]; [12]) | YAP1 (% UTC) (Yap1 mRNA [1]; [13])
1 | 1076367 (antisense k[5mC]*kT*kA*dT*dT*dT*dA*d[5mC]*dA*dT*dG*dA*dG*kA*kG*kG) [compound 1076367] | 3 % UTC | 31 % UTC | 10 % UTC | 4 % UTC | 3 % UTC | < 20 nM |  |  |  |  |  |  |  |  |  | 
2 | 1075757 (k[5mC]*kT*kT*dA*dA*dT*dA*d[5mC]*dA*dT*dT*dA*dT*kT*k[5mC]*k[5mC]; antisense) [compound 1075757] |  | 43 % UTC | 14 % UTC | 5 % UTC | 2 % UTC | < 20 nM | 2 % UTC |  |  |  |  |  |  |  |  | 
3 | 1075797 (kG*kA*kT*dA*dA*dT*d[5mC]*dA*dT*dG*dA*dT*dA*k[5mC]*kT*k[5mC]; antisense) [compound 1075797] |  |  |  |  |  |  |  | 3 % UTC | 43 % UTC | 11 % UTC | 4 % UTC | 3 % UTC | < 20 nM |  |  | 
4 | 1074453 (kG*kT*kG*dA*d[5mC]*dT*dA*dA*dT*dG*dA*dT*dA*kG*k[5mC]*kA; antisense) [compound 1074453] |  |  |  |  |  |  |  | 4 % UTC | 51 % UTC | 18 % UTC | 9 % UTC | 5 % UTC | < 20 nM |  |  | 
5 | 1076526 (kG*kT*kA*dG*dA*dA*dA*dG*dA*dT*dG*dG*d[5mC]*kT*k[5mC]*kA; antisense) [compound 1076526] |  | 44 % UTC | 9 % UTC | 3 % UTC | 2 % UTC | < 20 nM |  |  |  |  |  |  |  | 3 % UTC |  | 
6 | 1075055 (antisense k[5mC]*kT*kA*dT*dT*dA*dA*dG*dT*dG*dA*dG*d[5mC]*kT*kT*kT) [compound 1075055] | 4 % UTC | 60 % UTC | 20 % UTC | 6 % UTC | 4 % UTC | 30 nM |  |  |  |  |  |  |  |  |  | 
7 | 1075983 (kA*kT*k[5mC]*dG*dA*dA*dA*dA*dG*d[5mC]*dA*dA*dA*k[5mC]*kT*k[5mC]; antisense) [compound 1075983] | 5 % UTC | 81 % UTC | 46 % UTC | 17 % UTC | 6 % UTC | 100 nM |  |  |  |  |  |  |  |  |  | 
8 | 1074477 (kG*kT*kT*d[5mC]*d[5mC]*dG*dA*d[5mC]*dA*dA*dA*dA*d[5mC]*k[5mC]*kA*kA; antisense) [compound 1074477] |  | 77 % UTC | 48 % UTC | 20 % UTC | 12 % UTC | 100 nM | 10 % UTC |  |  |  |  |  |  |  |  | 
9 | 1074766 (kA*kT*k[5mC]*d[5mC]*d[5mC]*dA*dA*dT*dG*d[5mC]*dT*dA*d[5mC]*k[5mC]*k[5mC]*kA; antisense) [compound 1074766] |  | 72 % UTC | 32 % UTC | 14 % UTC | 7 % UTC | 100 nM |  |  |  |  |  |  |  | 8 % UTC |  | 
10 | 1075701 (kA*kA*kT*dT*dA*d[5mC]*dT*dA*dG*dA*dG*dG*d[5mC]*kT*kT*k[5mC]; antisense) [compound 1075701] |  |  |  |  |  |  |  | 3 % UTC | 84 % UTC | 34 % UTC | 11 % UTC | 6 % UTC | 100 nM |  |  | 
11 | 1075053 (antisense kA*kA*kT*dA*dT*dA*dT*dA*d[5mC]*dT*dT*dG*dA*kT*k[5mC]*k[5mC]) [compound 1075053] |  | 61 % UTC | 24 % UTC | 8 % UTC | 5 % UTC | 40 nM | 4 % UTC |  |  |  |  |  |  |  |  | 
12 | 1074479 (k[5mC]*kA*kT*dT*dT*dG*d[5mC]*d[5mC]*dT*dA*dG*dG*dT*kT*k[5mC]*k[5mC]; antisense) [compound 1074479] | 2 % UTC | 23 % UTC | 8 % UTC | 4 % UTC | 4 % UTC | < 20 nM |  |  |  |  |  |  |  |  |  | 
13 | 1076460 (kT*kA*kA*dT*dA*dT*dA*dG*d[5mC]*d[5mC]*d[5mC]*d[5mC]*dT*kT*k[5mC]*kA; antisense) [compound 1076460] |  | 79 % UTC | 53 % UTC | 25 % UTC | 12 % UTC | 200 nM |  |  |  |  |  |  |  |  | 7 % UTC | 
14 | 1074676 (antisense k[5mC]*kA*kA*dA*dT*dT*dA*dT*dA*dG*dG*d[5mC]*dA*k[5mC]*kT*k[5mC]) [compound 1074676] |  |  |  |  |  |  |  |  | 54 % UTC | 16 % UTC | 6 % UTC | 5 % UTC | < 20 nM |  |  | 4 % UTC
15 | 1074548 (kA*kT*k[5mC]*dT*dA*d[5mC]*d[5mC]*dG*dT*dA*dT*dG*d[5mC]*k[5mC]*k[5mC]*kA; antisense) [compound 1074548] |  |  |  |  |  |  |  |  | 50 % UTC | 15 % UTC | 7 % UTC | 8 % UTC | < 20 nM |  |  | 4 % UTC
16 | 1076399 (antisense kG*kA*kT*dA*dA*d[5mC]*dT*dT*dA*dG*dA*dG*dA*kT*kG*kT) [compound 1076399] | 4 % UTC | 60 % UTC | 29 % UTC | 11 % UTC | 6 % UTC | 40 nM |  |  |  |  |  |  |  |  |  | 
17 | 1075084 (antisense kT*kG*kA*d[5mC]*dA*dA*d[5mC]*dA*dA*d[5mC]*dA*d[5mC]*dT*k[5mC]*k[5mC]*kT) [compound 1075084] |  | 103 % UTC | 72 % UTC | 37 % UTC | 14 % UTC | 300 nM |  |  |  |  |  |  |  |  | 9 % UTC | 
18 | 1074606 (DNA kG*kG*kT*dA*dT*dA*dA*dT*d[5mC]*dA*dT*dG*dA*kT*kT*kA) [compound 1074606] |  | 31 % UTC | 10 % UTC | 6 % UTC | 4 % UTC | < 20 nM |  |  |  |  |  |  |  | 4 % UTC |  | 
19 | 1075893 (antisense k[5mC]*kG*kT*dG*dA*dA*dA*dA*dA*dG*dA*dT*dG*kT*kG*kG) [compound 1075893] |  |  |  |  |  |  |  | 7 % UTC | 80 % UTC | 29 % UTC | 11 % UTC | 8 % UTC | 100 nM |  |  | 
20 | 1074509 (kT*kG*kT*dT*dA*dT*dG*dT*dT*dT*dG*dG*dG*kT*kG*kT; antisense) [compound 1074509] |  | 44 % UTC | 12 % UTC | 6 % UTC | 5 % UTC | < 20 nM | 5 % UTC |  |  |  |  |  |  |  |  | 
21 | 1076366 (antisense kA*kT*kT*dT*dA*d[5mC]*dA*dT*dG*dA*dG*dA*dG*kG*kA*kG) [compound 1076366] |  | 63 % UTC | 25 % UTC | 8 % UTC | 4 % UTC | 40 nM |  |  |  |  |  |  |  | 4 % UTC |  | 
22 | 1074484 (kT*k[5mC]*kA*d[5mC]*dT*dA*dA*dT*dA*dT*dG*dG*dT*k[5mC]*kA*kT; antisense) [compound 1074484] |  | 43 % UTC | 12 % UTC | 5 % UTC | 3 % UTC | < 20 nM |  |  |  |  |  |  |  |  |  | 3 % UTC
23 | 1075061 (antisense k[5mC]*k[5mC]*kT*dT*dA*dT*dA*d[5mC]*dT*dT*dT*dT*dA*kG*k[5mC]*k[5mC]) [compound 1075061] |  |  |  |  |  |  |  | 5 % UTC | 58 % UTC | 23 % UTC | 9 % UTC | 6 % UTC | < 20 nM |  |  | 
24 | 1075118 (k[5mC]*kT*kA*dT*dT*dT*dA*d[5mC]*dT*d[5mC]*dT*dG*dT*k[5mC]*kA*k[5mC]; antisense) [compound 1075118] |  | 85 % UTC | 36 % UTC | 8 % UTC | 4 % UTC | 100 nM |  |  |  |  |  |  |  | 4 % UTC |  | 
